Legend:
Assay type in all cases: functional
[1] = tested on: Rubus; experiment: Ratio in botteled blackberries was determined
[2] = tested on: Anethum graveolens; experiment: Ratio in pickled dill was determined
[3] = tested on: Capsicum; experiment: Ratio in baked paprika was determined
[4] = tested on: Capsicum; experiment: Ratio in pickled paprika was determined
[5] = tested on: Prunus domestica; experiment: Ratio in bottled plum was determined
[6] = tested on: Rumex acetosa; experiment: Ratio in boiled sorrel was determined
[7] = tested on: Rumex acetosa; experiment: Ratio in microwaved sorrel was determined
[8] = tested on: Rumex acetosa; experiment: Ratio in steamed sorrel was determined
[9] = tested on: Rumex acetosa; experiment: Ratio in stewed sorrel was determined
[10] = tested on: Rubus; experiment: Ratio in raw blackberries was determined
[11] = tested on: Capsicum; experiment: Ratio in raw paprika was determined
[12] = tested on: Prunus domestica; experiment: Ratio in raw plum was determined
[13] = tested on: Rumex acetosa; experiment: Ratio in raw sorrel was determined

Row | Compound | Ratio [1] | Ratio [2] | Ratio [3] | Ratio [4] | Ratio [5] | Ratio [6] | Ratio [7] | Ratio [8] | Ratio [9] | Ratio [10] | Ratio [11] | Ratio [12] | Ratio [13]
1 | C=C1C=CCC(C)(C)[C@H]1/C=C/C(C)=C/C=C/C(C)=C/C=C/C=C(C)/C=C/C=C(C)/C=C/C1=C(C)C[C@@H](O)CC1(C)C | 7.9% | 3% | 5.1% | 2.2% | 4.7% | 6.5% | 5% | 11.3% | 8% |  |  |  | 
2 | CC1=C[C@@H](O)CC(C)(C)[C@H]1/C=C/C(C)=C/C=C/C(C)=C/C=C/C=C(C)/C=C/C=C(C)/C=C/C1=C(C)C[C@@H](O)CC1(C)C | 17.4% | 13.8% | 3.8% | 12.5% | 7% | 9% | 6.4% | 9.2% | 8.8% |  |  |  | 
3 | CC1=C[C@H](O)CC(C)(C)[C@H]1/C=C/C(C)=C/C=C/C(C)=C/C=C/C=C(C)/C=C/C=C(C)/C=C/C1=C(C)C[C@@H](O)CC1(C)C [LUTEIN] | 37.4% | 28.7% | 47.5% | 49.2% | 29.3% | 28.6% | 24% | 12.7% | 16.4% | 58.6% | 53.5% | 34.2% | 36%
